According to PubChem BioAssay (NCI):
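Step 1: Grow cells in 96-well plates. Step 2: Expose to compound for 48 hours at 5 concentrations. Step 3: Interpolate endpoints linearly; if unreached, use highest concentration. Here, GI50 denotes the concentration required for 50% inhibition of growth. TGI: total growth inhibition.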

Legend:
Test in all cases: NCI-60 cell line screen, 48 h
DU-145 prostate = system: DU-145 prostate
OVCAR-4 ovarian = system: OVCAR-4 ovarian
T-47D breast = system: T-47D breast
SK-MEL-28 melanoma = system: SK-MEL-28 melanoma
NCI-H522 lung = system: NCI-H522 lung
CAKI-1 renal = system: CAKI-1 renal
SK-OV-3 ovarian = system: SK-OV-3 ovarian
IGROV1 ovarian = system: IGROV1 ovarian
HOP-62 NSCLC = system: HOP-62 NSCLC
CCRF-CEM leukemia = system: CCRF-CEM leukemia
786-0 renal = system: 786-0 renal
OVCAR-8 ovarian = system: OVCAR-8 ovarian
M14 melanoma = system: M14 melanoma
SF-539 CNS = system: SF-539 CNS
K-562 leukemia = system: K-562 leukemia
A549 NSCLC = system: A549 NSCLC
MALME-3M melanoma = system: MALME-3M melanoma
OVCAR-5 ovarian = system: OVCAR-5 ovarian
HCT-15 colon = system: HCT-15 colon
PC-3 prostate = system: PC-3 prostate
NCI-H460 lung = system: NCI-H460 lung
SF-268 CNS = system: SF-268 CNS
SR leukemia = system: SR leukemia
SW-620 colon = system: SW-620 colon
KM12 colon = system: KM12 colon
NCI-H226 lung = system: NCI-H226 lung
MCF7 breast = system: MCF7 breast
OVCAR-3 ovarian = system: OVCAR-3 ovarian
MOLT-4 leukemia = system: MOLT-4 leukemia
RXF 393 renal = system: RXF 393 renal
MDA-MB-231 breast = system: MDA-MB-231 breast
MDA-MB-435 = system: MDA-MB-435
COLO 205 colon = system: COLO 205 colon
HCT-116 colon = system: HCT-116 colon
HS 578T breast = system: HS 578T breast
U251 CNS = system: U251 CNS
A498 renal = system: A498 renal
SF-295 CNS = system: SF-295 CNS
HT29 colon = system: HT29 colon
BT-549 breast = system: BT-549 breast
HL-60(TB) leukemia = system: HL-60(TB) leukemia
ACHN renal = system: ACHN renal
HCC-2998 colon = system: HCC-2998 colon
TK-10 renal = system: TK-10 renal
NCI/ADR-RES ovarian = system: NCI/ADR-RES ovarian
UACC-62 melanoma = system: UACC-62 melanoma
UACC-257 melanoma = system: UACC-257 melanoma
SNB-75 CNS = system: SNB-75 CNS
SN12C renal = system: SN12C renal
SK-MEL-5 melanoma = system: SK-MEL-5 melanoma
SNB-19 CNS = system: SNB-19 CNS
RPMI-8226 leukemia = system: RPMI-8226 leukemia
NCI-H23 lung = system: NCI-H23 lung
UO-31 renal = system: UO-31 renal

Nc1ncc(-c2ccc(C(F)(F)F)cc2)c(NC2CCCCCC2)n1
GI50 (DU-145 prostate): 39.9 µM
TGI (DU-145 prostate): > 100 µM
GI50 (OVCAR-4 ovarian): 16.7 µM
TGI (OVCAR-4 ovarian): > 100 µM
GI50 (T-47D breast): 18.3 µM
TGI (T-47D breast): > 100 µM
GI50 (SK-MEL-28 melanoma): 53.6 µM
TGI (SK-MEL-28 melanoma): > 100 µM
GI50 (NCI-H522 lung): 27.7 µM
TGI (NCI-H522 lung): > 100 µM
GI50 (CAKI-1 renal): 20.9 µM
TGI (CAKI-1 renal): > 100 µM
GI50 (SK-OV-3 ovarian): > 100 µM
TGI (SK-OV-3 ovarian): > 100 µM
GI50 (IGROV1 ovarian): 19.5 µM
TGI (IGROV1 ovarian): > 100 µM
GI50 (HOP-62 NSCLC): 54.7 µM
TGI (HOP-62 NSCLC): > 100 µM
GI50 (CCRF-CEM leukemia): 15.4 µM
TGI (CCRF-CEM leukemia): 52.8 µM
GI50 (786-0 renal): 32.2 µM
TGI (786-0 renal): > 100 µM
GI50 (OVCAR-8 ovarian): 32.5 µM
TGI (OVCAR-8 ovarian): > 100 µM
GI50 (M14 melanoma): 32.9 µM
TGI (M14 melanoma): > 100 µM
GI50 (SF-539 CNS): 52.5 µM
TGI (SF-539 CNS): > 100 µM
GI50 (K-562 leukemia): 21 µM
TGI (K-562 leukemia): > 100 µM
GI50 (A549 NSCLC): 16.5 µM
TGI (A549 NSCLC): > 100 µM
GI50 (MALME-3M melanoma): 18.6 µM
TGI (MALME-3M melanoma): 81.8 µM
GI50 (OVCAR-5 ovarian): 45.6 µM
TGI (OVCAR-5 ovarian): > 100 µM
GI50 (HCT-15 colon): 38.8 µM
TGI (HCT-15 colon): > 100 µM
GI50 (PC-3 prostate): 25.4 µM
TGI (PC-3 prostate): > 100 µM
GI50 (NCI-H460 lung): 42.7 µM
TGI (NCI-H460 lung): > 100 µM
GI50 (SF-268 CNS): 48.4 µM
TGI (SF-268 CNS): > 100 µM
GI50 (SR leukemia): 13.2 µM
TGI (SR leukemia): 57.2 µM
GI50 (SW-620 colon): 39.3 µM
TGI (SW-620 colon): > 100 µM
GI50 (KM12 colon): 37.2 µM
TGI (KM12 colon): > 100 µM
GI50 (NCI-H226 lung): 12.9 µM
TGI (NCI-H226 lung): > 100 µM
GI50 (MCF7 breast): 27.5 µM
TGI (MCF7 breast): > 100 µM
GI50 (OVCAR-3 ovarian): 35.9 µM
TGI (OVCAR-3 ovarian): > 100 µM
GI50 (MOLT-4 leukemia): 23.3 µM
TGI (MOLT-4 leukemia): 81.5 µM
GI50 (RXF 393 renal): 16.1 µM
TGI (RXF 393 renal): 88 µM
GI50 (MDA-MB-231 breast): 21.3 µM
TGI (MDA-MB-231 breast): 76.9 µM
GI50 (MDA-MB-435): 35 µM
TGI (MDA-MB-435): > 100 µM
GI50 (COLO 205 colon): 19.5 µM
TGI (COLO 205 colon): 36.7 µM
GI50 (HCT-116 colon): 20.2 µM
TGI (HCT-116 colon): > 100 µM
GI50 (HS 578T breast): 25.5 µM
TGI (HS 578T breast): > 100 µM
GI50 (U251 CNS): 20.8 µM
TGI (U251 CNS): 88.9 µM
GI50 (A498 renal): 13.4 µM
TGI (A498 renal): 79.3 µM
GI50 (SF-295 CNS): 24.1 µM
TGI (SF-295 CNS): > 100 µM
GI50 (HT29 colon): 40.6 µM
TGI (HT29 colon): > 100 µM
GI50 (BT-549 breast): 34.9 µM
TGI (BT-549 breast): > 100 µM
GI50 (HL-60(TB) leukemia): 21.4 µM
TGI (HL-60(TB) leukemia): 63.6 µM
GI50 (ACHN renal): 33.8 µM
TGI (ACHN renal): > 100 µM
GI50 (HCC-2998 colon): 48.5 µM
TGI (HCC-2998 colon): > 100 µM
GI50 (TK-10 renal): 54.5 µM
TGI (TK-10 renal): > 100 µM
GI50 (NCI/ADR-RES ovarian): 25.3 µM
TGI (NCI/ADR-RES ovarian): > 100 µM
GI50 (UACC-62 melanoma): 20.4 µM
TGI (UACC-62 melanoma): > 100 µM
GI50 (UACC-257 melanoma): 22.3 µM
TGI (UACC-257 melanoma): > 100 µM
GI50 (SNB-75 CNS): 43.4 µM
TGI (SNB-75 CNS): > 100 µM
GI50 (SN12C renal): 29.4 µM
TGI (SN12C renal): > 100 µM
GI50 (SK-MEL-5 melanoma): 12.3 µM
TGI (SK-MEL-5 melanoma): 35 µM
GI50 (SNB-19 CNS): 47.4 µM
TGI (SNB-19 CNS): > 100 µM
GI50 (RPMI-8226 leukemia): 8.91 µM
TGI (RPMI-8226 leukemia): 41.1 µM
GI50 (NCI-H23 lung): 20 µM
TGI (NCI-H23 lung): > 100 µM
GI50 (UO-31 renal): 13 µM
TGI (UO-31 renal): > 100 µM
